Data reported in patent US20240201205A1, “METHOD FOR DETECTING NEUROLOGICAL DISEASES USING SUPRAMOLECULE POLYMER THERAPEUTICS” (The Regents of the University of California, priority 2022, published 2024).

Tests used:
[1] = system: Alzheimer's disease tau paired-helical filaments (PHFs); test: Cryo-EM co-structure of GTP-1 with Alzheimer's disease tau paired-helical filaments; type: binding, human; details: AD patient filaments
Protocol: Samples were incubated with 20 uM GTP-1 prior to vitrification. […] The micrograph images and their 2D classification reveal well-resolved filaments primarily in the PHF conformation, with crossover distances ranging from 700-800 Å. A minor population of straight filaments (SF) was also identified; however, further structural characterization was not feasible due to limited abundance. […] The PHF structure is comprised of two protofilaments related by two-fold symmetry with a 2.37 Å rise and 179.45° twist, consistent with previously reported structures of PHFs prepared from AD brains (13, 15).
Tau PHF filament purification. Filament purification was based on Fitzpatrick et al., 2017^1. […]
Cryo-EM sample preparation and data collection. […] For the tau PHF, 3 μL of purified filaments mixed with GTP-1 was added to a glow-discharged 200 mesh 1.2/1.3R Au Quantifoil grid for 10 seconds before blotting for 2 seconds, and then a second 3 μL aliquot was added for 3 seconds and blotted for 1 second before being plunge frozen in liquid ethane using a FEI Vitrobot Mark IV (Thermo Fisher Scientific). For the synuclein ligands, 3 μL of purified filaments mixed with compound was added to a 200 mesh 1.2/1.3R Au Quantifoil grid coated with a 2 nm thick layer of carbon, which had not been glow discharged. […]

[2] = target: T1, α-synuclein fibrils isolated from an MSA patient sample (Homo sapiens, UniProt P37840); test: Cryo-EM co-structures of compounds with α-synuclein fibrils from MSA patient; type: binding; details: fibrils from MSA patient sample; 20 μM ligand
T1 construct: fresh-frozen tissue from the cerebellum of patients clinically and neuropathologically diagnosed with MSA; from tissue; host or cells: cerebellum of MSA patients (sarkosyl-insoluble filament preparation)
Protocol: MSA filament purification. Filament purification was based on Schweigenhauser et al., 2020^2. Briefly, 1-2 g of fresh-frozen tissue from the cerebellum of patients clinically and neuropathologically diagnosed with MSA was homogenized at 20 mL/g of tissue in 10 mM Tris-HCl (pH 7.4), 800 mM NaCl, 1 mM EGTA, and 10% sucrose. A final concentration of 1% N-laurosarcosinate (w/v) was added to the homogenates, and these mixtures were incubated at 37° C. for 30 minutes. Homogenates were then centrifuged at 10,000 g for 10 minutes, and the supernatant was kept and then centrifuged at 100,000 g for 20 minutes. The pellets were resuspended at 500 μL/g of frozen tissue in 10 mM Tris-HCl (pH 7.4), 800 mM NaCl, 1 mM EGTA, and 10% sucrose. This was followed by another centrifugation at 3,000 g for 5 minutes. The supernatant was kept and diluted threefold with 50 mM Tris-HCl (pH 7.4), 150 mM NaCl, 10% sucrose, and 2% sarkosyl, followed by another centrifugation at 150,000 g for 1 hour. The final pellet resuspended in 30 mM Tris-HCl (pH 7.4) at a concentration of 100 μL/g frozen tissue.
Cryo-EM sample preparation and data collection. Purified frontal cortex and cerebellum tissue was incubated with 20 μM ligand for 45 minutes prior to freezing. For the tau PHF, 3 μL of purified filaments mixed with GTP-1 was added to a glow-discharged 200 mesh 1.2/1.3R Au Quantifoil grid for 10 seconds before blotting for 2 seconds, and then a second 3 μL aliquot was added for 3 seconds and blotted for 1 second before being plunge frozen in liquid ethane using a FEI Vitrobot Mark IV (Thermo Fisher Scientific). For the synuclein ligands, 3 μL of purified filaments mixed with compound was added to a 200 mesh 1.2/1.3R Au Quantifoil grid coated with a 2 nm thick layer of carbon, which had not been glow discharged. After 30 seconds, grids were blotted for 7.5 seconds at room temperature and 100% humidity. Grids were plunge frozen in liquid ethane using a FEI Vitrobot Mark IV. […] A defocus range of 0.8 to 1.8 μm was used with a total exposure time of 2.024 seconds fractionated into 0.025 seconds subframes. The total dose for each movie was 46 electrons/Å^2. Movies were motion-corrected using MotionCor2^3 in Scipion^4 and were Fourier cropped by a factor of 2 to a final pixel size of 0.834 Å per pixel.
Image processing. All image processing was done in RELION 4^5, and the same workflow was used for each dataset. Dose-weighted summed micrographs were imported into RELION 4. The contrast transfer function was estimated using CTFFIND-4.1^6. Filaments were manually picked and then segments were extracted with a box size of 900 pixels downscaled to 300 pixels. Contaminants and segments contributing to straight filaments were separated out using reference-free 2D class averaging. The remaining segments were re-extracted with a box size of 288 pixels without downscaling. An initial model was generated from a cylinder in RELION. One or more rounds of 3D classification with image alignment were performed, with helical rise and […] parameters fixed to eliminate obvious junk particles. One or more rounds of 3D auto-refinement was run using the best map from 3D classification low-pass filtered to 10 Å, allowing rise and twist parameters to vary. Maps were sharpened using the standard post-processing procedures in RELION.
Model building, refinement, and analysis. Prior to ligand placement, a single strand of a previously solved MSA or tau PHF filament structure^2 (PDB: 6XYQ) was refined against the density using Phenix^7. Refinement of the ligand binding pocket was done in COOT^8. Ligands were placed by hand in the density using Chimera^9. This model was then translated to give a stack spanning 5 rungs.

Row | Compound | binding site on tau PHF [1] | binding to α-synuclein fibrils (cryo-EM co-structure) [2]
1 | FCCC1CCN(c2ccn3c(n2)nc2ccccc23)CC1 [GTP-1] | bound to a solvent exposed cleft (residues 351-360) | –
2 | CNc1nc(=O)n(-c2nc(-c3cc(C)cc(C)n3)oc2-c2ccc(F)c(F)c2)cc1F [compound 294] | – | bound to fibrils isolated from an MSA patient sample
3 | CNc1nc(=O)n(-c2nc(-c3cccc(C)c3)oc2-c2ccc(Cl)c(F)c2)cc1F [Compound 83, 1-(5-(4-chloro-3-fluorophenyl)-2-(m-tolyl)oxazol-4-yl)-5-fluoro-4-(methylamino)pyrimidin-2(1H)-one] | – | bound to fibrils isolated from an MSA patient sample
